Experiments:
[1] = tested on: COS-7 cells; assay: Ad-GFP adenovirus infection of COS-7 cells (Western blot, fluorescence microscopy, flow cytometry); assay type: cell-based
Description: (§1) Adenoviruses (1 m.o.i. or approximately 1×10^6 pfu per 60 mm dish) were pre-complexed with the peptides (0.05 to 5 mM) in 100 μl of serum free media (OptiMEM; Gibco, Grand Island, N.Y.) for 30 min at room temperature. Cells (COS-7 or BAEC) were grown on 60 mm dishes until 90% confluent and media was changed to serum free (2 ml) before exposure to the adenovirus complex. The complex (100 μl) was added to the cells for 4 hrs and then the cells were washed and changed to complete growth media for 24 to 48 hours.
(§2) Western blotting was performed as described previously (16). Briefly, cells were lysed (50 mM Tris-HCl, 0.1 mM EDTA, 0.1 mM EGTA, 1% (v/v) Nonidet P-40, 0.1% SDS, 0.1% deoxycholic acid, 1 mM Pefabloc, 10 μg/ml aprotinin, and 10 μg/ml leupeptin) for 1 hr at 4° C. and the soluble material was separated on a 10% SDS-PAGE, and transferred to a nitrocellulose membrane. Blocked membranes were probed using the specific polyclonal anti-GFP (Clontech, Palo Alto, Calif.) or the monoclonal anti-hsp90(Stressgen, Victoria, Canada) antibodies. After washing and incubating with secondary antibodies, immunoreactive proteins were visualized by ECL detection system (Amersham, Buckinghamshire, UK).
(§3) Live cells infected with Ad-GFP were washed with serum free media and visualized using a Zeiss Axiovert 200 microscope under phase contrast or GFP filters (excitation 450 nm, emission 510 nm). Images were captured using the Openlab Imaging software (Improvision, Lexington, Mass.). Flow cytometric analysis of GFP expressing cells was performed 48 h after following infection. Cells were trypsinized, PBS washed and fixed in 70% ethanol at 4° C. Cells were resuspended in PBS and were analyzed by gating for GFP fluorescence by flow cytometry using a FACSort (Becton Dickinson, San Jose, Calif.).

[2] = tested on: adductor muscle; assay: Intramuscular Ad-β-gal reporter virus injection into mouse adductor muscle; assay type: in vivo; settings: Ad-β-gal 5×10^7 pfU in 25 μl, three sites, pre-complexed with AP 10 μM
Description: (§4) -galactosidase expression was monitored by either X-Gal staining or activity 4 days after virus administration as described previously (14,18).
(§5) Ischemic hind limb model was performed as described previously (19). Briefly, following anesthesia, the left femoral artery was exposed under a dissection microscope. The proximal end of the femoral artery and the distal portion of the saphenous artery were ligated. All branches between these two sites were cauterized, and arteriectomy was performed. Following arteriectomy, 25 μl of either virus storage buffer, Ad-VEGF (5.5×10^7 pfu), Ad- -ga l (2.5×10^7 pfu), pre-complexed with AP (30 min room temperature; 10 μM) or AP alone (at least 5 animals per group) was injected into the adductor muscle at 3 different sites. Mice were sacrificed 21 days following surgery and muscles of the lower limbs were harvested, methanol fixed and paraffm embedded. Tissue sections (5 μm thick) were stained using an anti-CD31 antibody (Pharmingen, San Diego, Calif.), and hematoxylin counter stained. Pictures from 4 random areas of each section, and 3 sections per mice were taken using a Kodak digital camera mounted on a light microscope (40× objective). Capillary density was quantified by measuring the percentage of CD31 positive area out of total area using the Matlab software (The Math Works, Inc.).

[3] = tested on: vascular permeability in mouse ear; assay: Permeability assay: Evans blue leakage in mouse ear after intradermal Ad-VEGF; assay type: in vivo
Description: Ad-VEGF (5.5×10^7 pfu) or Ad-β-gal (2.5×10^7 pfu) with or without AP complex (10 μM; 30 minutes at room temperature) was injected intradermally into the ear of CD1 mouse. Evans blue leakage was monitored 4 days after infection as described previously (9).

[4] = tested on: bovine aortic endothelial cells (BAEC); assay: Nitric oxide release from BAEC infected with Ad-eNOS or Ad-GFP; assay type: cell-based
Description: as §1
Basal NO2^− release from BAEC, a stable metabolite of NO, was assessed in the medium as described (9). In all experiments, release was attenuated by a NOS inhibitor.

[5] = tested on: carotid arteries from eNOS -/- mice; assay: Isometric studies: acetylcholine-induced relaxation of eNOS -/- carotid arteries transduced with Ad-eNOS; set-up: species or system mouse; settings: carotid arteries of eNOS (-/-) mice luminally transduced with Ad-eNOS, without or pre-complexed with AP
Description: (§6) The common carotid artery was cannulated, flushed with a small amount (˜3 μl) of virus and tied off proximally. Approximately 3 μl of Ad-β-gal (1×10^9 pfu/ml), Ad-GFP (1×10^9 pfu/ml), Ad-eNOS (5×10^10 pfu/ml) virus or virus complexed with AP (10 μM) for 30 min at room temperature was injected. The virus-filled vessel was incubated in situ at 37° C. for 2 hours and then rinsed in saline prior to overnight (18 hours) incubation in complete DMEM at 37° C., 5% CO2. Control vessels were filled with viral storage buffer and treated in an identical manner.
Rings of carotid artery were studied as described previously (17). To assess endothelial function, vessels were precontracted with a submaximal (˜80%) concentration of PGF2α (5×10^−6 mol/L) prior to application of endothelium-dependent dilator acetylcholine (10^−10−3×10^−6 mol/L).

[6] = tested on: blood vessels of the lower limbs (PECAM/CD31 positive area); assay: Ischemic hind limb angiogenesis assay with intramuscular Ad-VEGF; assay type: in vivo, mouse; settings: intramuscular Ad-VEGF 5.5×10^7 pfu in presence of AP, hind limb ischemia
Description: as §5

[7] = tested on: human umbilical vascular endothelial cells (HUVEC); assay: Ret-GFP retrovirus infection of HUVEC (Western blot, fluorescence microscopy); assay type: cell-based
Description: For retroviral infections supernatant from phoenix retroviral packaging cell line expressing […] was incubated for 30 min at 37 C in presence of AP (0.1-0.5 mM). HUVEC cells were exposed to the mixture for 24 hrs and then harvested.
as §2
as §3, with “Flow cytometric analysis of GFP expressing cells was performed 48 h after following infection. Cells were trypsinized, PBS washed and fixed in 70% ethanol at 4° C.” left out

[8] = tested on: mouse carotid artery endothelium; assay: Endothelium specific gene transfer of mouse carotid arteries ex vivo (Ad-GFP, Ad-β-gal)
Description: as §6, §4

[9] = tested on: bovine aortic endothelial cells (BAEC); assay: Ad-GFP adenovirus infection of bovine aortic endothelial cells (Western blot); assay type: cell-based; settings: AP/Ad-GFP complex
Description: as §1, §2

Sequence | increasing Ad-GFP infection (GFP western blot), compared with AP ([1]; Tat peptide 0.1 and 0.5 mM, COS-7) | staining for β-galactosidase activity in adductor muscle [2] | increase of basal vascular permeability over Ad-VEGF alone ([3]; AP complexed with Ad-VEGF, mouse ear) [fold] | ability of VEGF to promote vascular leak (extravasation of Evans blue) ([3]; Ad-VEGF 5.5×10^7 pfu with AP, intradermal, 4 days) | Ad-eNOS mediated NO release from cultured endothelial cells ([4]; 1 m.o.i. of eNOS virus in absence or presence of AP) | NO release with control virus Ad-GFP ([4]; Ad-GFP 1 m.o.i. in absence or presence of AP) | expression of GFP (western blotting) ([1]; AP 0.05 to 5.0 mM pre-incubated 30 min with Ad-GFP 1 m.o.i., diluted 20 fold into medium, COS-7) | increase in cells strongly positive for GFP (M2), flow cytometry ([1]; Ad-GFP 1 m.o.i. pre-complexed with AP vs Ad-GFP alone, COS-7) [fold] | numbers of GFP positive cells (fluorescent microscopy) compared to virus alone ([1]; Ad-GFP pre-incubated with 0.5 mM AP, COS-7) | GFP expression when cells exposed to AP prior to or after Ad-GFP infection (no pre-complex step) ([1]; COS-7, Ad-GFP) | endothelium dependent dilation in response to acetylcholine (Ach) [5] | PECAM positive vessels compared to Ad-VEGF alone [6] [fold] | GFP expression (western blot) ([7]; AP 0.05-0.5 mM added to Ret-GFP viral supernatant (approximately 10^6-10^7 pfu/ml)) | GFP positive cells (fluorescence microscopy) ([7]; AP/Ret-GFP complex) | infectivity of the Ad-GFP virus (en face fluorescence imaging) ([8]; Ad-GFP 10^9 pfu/ml pre-complexed with AP 10 μM, luminal, ex vivo) | X-Gal staining in the endothelial cell layer (tissue cross section) ([8]; Ad-β-gal 10^9 pfu/ml, AP pre-treatment, ex vivo) | β-galactosidase activity increase over Ad-β-gal infection alone ([8]; carotid arteries treated with AP/Ad-β-gal complex) | GFP expression levels (western blotting) compared to Ad-GFP alone [9]
GRKKRRQRRRPPQ (Human immunodeficiency virus) [Tat peptide, synthetic peptide, HIV Tat amino acids 48-60] | as efficient as AP |  |  |  |  |  |  |  |  |  |  |  |  |  |  |  |  | 
RQIKIWFQNRRMKWKK [AP] |  | increased | 2.5 | significantly enhanced | improves | does not influence | dose-dependently improved | ~10 | increased numbers | did not yield an increase | improved | > 4 | dose-dependently enhanced | substantial increase | markedly improved | increased staining | two | marked increase

Reference: US20050003546A1, “Viral uptake into cells and tissues” (Yale University, priority 2001, published 2005)
